Laboratory results as given in patent US20250171459A1, “2-METHYL-4',5'-DIHYDROSPIRO[PIPERIDINE-4,7'-THIENO[2,3-C]PYRAN] DERIVATIVES AS INHIBITORS OF APOL1 AND METHODS OF USING SAME” (Vertex Pharmaceuticals Incorporated, priority 2022, published 2025).

What follows are molecules tested against T1, APOL1 (Homo sapiens, UniProt O14791) (assay: MultiTox-Fluor Multiplex Cytotoxicity Assay in tet-inducible APOL1 T-REx-HEK293 cells (cell rescue, ratio of dead to live cells)). Conditions: tet-inducible transgenic APOL1 T-REx-HEK293 cell lines, 50 ng/mL tet, 24 hours; read-out: IP50 (i.e., IC50 for cell proliferation).
T1 sequence (O14791 1-398 S342G/I384M): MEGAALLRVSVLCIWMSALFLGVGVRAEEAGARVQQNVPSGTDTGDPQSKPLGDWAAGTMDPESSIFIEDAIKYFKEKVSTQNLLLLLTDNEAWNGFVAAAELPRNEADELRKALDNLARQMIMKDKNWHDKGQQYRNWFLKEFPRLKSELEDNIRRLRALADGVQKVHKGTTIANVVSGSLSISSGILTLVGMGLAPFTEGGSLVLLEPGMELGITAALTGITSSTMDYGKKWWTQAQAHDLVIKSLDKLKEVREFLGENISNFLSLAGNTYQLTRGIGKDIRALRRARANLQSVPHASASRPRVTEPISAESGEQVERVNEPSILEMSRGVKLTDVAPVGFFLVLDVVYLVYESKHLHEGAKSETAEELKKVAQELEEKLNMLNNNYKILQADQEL
Format: cell-based
In short: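 T-REx-HEK293 cells with tet-inducible APOL1 were treated with compound (10 μM top, 10-point 3-fold dilution, duplicate) plus 50 ng/mL tetracycline for 24 h at 37° C, in DMEM with 2% tet-free FBS. MultiTox-Fluor protease signals gave a dead/live ratio, normalized to no tet (100% viability) and tet alone (0%).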

Q: Which IC50 does the source give for `CCc1cc2c(s1)CCO[C@@]21CCN(C[C@H]2C[C@@H](NS(=O)(=O)c3cncc(Cl)c3)C2)[C@@H](C)C1` [Compound 407] here?
A: Its IC50 is less than 100 nM.

Q: For `C[C@H]1C[C@@]2(CCN1Cc1cnn(CCC(N)=O)c1)OCCc1c2sc(C(F)(F)F)c1CO` [Compound 896, 3-[4-[[(2′S, 7R)-3-(hydroxymethyl)-2′-methyl-2-(trifluoromethyl)spiro[4,5-dihydrothieno[2,3-c]pyran-7,4′-piperidine]-1′-yl]methyl]pyrazol-1-yl]propanamide], which IC50 is on record?
A: Its IC50 is less than 100 nM.

Q: With `C[C@H]1C[C@@]2(CCN1Cc1cnn(CC(O)CC3(O)CCOC3)c1)OCCc1c2sc(C(F)(F)F)c1CO` (stereo partly drawn) [Compound 942] as the molecule, how does the IC50 read?
A: The IC50 was less than 100 nM.

Q: Which IC50 does the source give for `CCc1cc2c(s1)CCO[C@@]21CCN(Cc2cn(CC(C)COC)nn2)[C@@H](C)C1` (stereo partly drawn) [Compound 108] here?
A: Its IC50 is 100 to 500 nM.

Q: `CCc1cc2c(s1)CCO[C@@]21CCN(Cc2cn(C(CC)C(=O)N3CCOCC3)nn2)[C@@H](C)C1` (stereo partly drawn) [Compound 172] was tested. Which IC50 did it give?
A: The IC50 was 100 to 500 nM.

Q: With `CC(C)OC[C@@H](O)Cn1cc(CN2CC[C@]3(C[C@@H]2C)OCCc2c3sc(C(F)(F)F)c2CO)cn1` [Compound 956] as the molecule, how does the IC50 read?
A: Its IC50 is less than 100 nM.

Q: For `C[C@H]1C[C@@]2(CCN1Cc1cccc(OCC(N)=O)c1)OC[C@H](O)c1cc(Cl)sc12` [Compound 771], which IC50 is on record?
A: Its IC50 is 100 to 500 nM.

Q: With `CCc1cc2c(s1)CCO[C@@]21CCN(C[C@H]2C[C@H](N)C2)[C@@H](C)C1` [Compound 419, 3-[[(2′S,4R)-2-ethyl-2′-methyl-spiro[6,7-dihydrothieno[3,2-c]pyran-4,4′-piperidine]-1′-yl]methyl]cyclobutanamine] as the molecule, how does the IC50 read?
A: The IC50 was 500 to 1000 nM.

Q: With `C[C@H]1C[C@@]2(CCN1Cc1cnn(CC(C)(O)CO)c1)OCCc1c2sc(C(F)(F)F)c1CO` (stereo partly drawn) [Compound 936] as the molecule, how does the IC50 read?
A: Its IC50 is less than 100 nM.

Q: With `CCc1cc2c(s1)CCO[C@@]21CCN(C[C@H]2C[C@@H](NS(=O)(=O)c3cccc(OC)c3)C2)[C@@H](C)C1` [Compound 396] as the molecule, how does the IC50 read?
A: The IC50 was less than 100 nM.

Q: For `C[C@H]1C[C@@]2(CCN1C1CCCC1O)OCCc1cc(C(F)(F)F)sc12` (stereo partly drawn) [Compound 864, 2-[(2′S,7R)-2′-methyl-2-(trifluoromethyl)spiro[4,5-dihydrothieno[2,3-c]pyran-7,4′-piperidine]-1′-yl]cyclopentanol], which IC50 is on record?
A: Its IC50 is 100 to 500 nM.

Q: Which IC50 does the source give for `CCc1cc2c(s1)CCO[C@@]21CCN(Cc2cn(CCc3cnccn3)nn2)[C@@H](C)C1` [Compound 43] here?
A: Its IC50 is 100 to 500 nM.

Q: How did the IC50 turn out when `CCc1cc2c(s1)CCOC21CCN(Cc2cn(CC(CO)C(C)C)nn2)C(C)C1` (stereo not drawn) [Compound 107] was run?
A: Its IC50 is less than 100 nM.

Q: With `CCc1cc2c(s1)CCOC21CCN(Cc2cn(CC(O)CF)nn2)C(C)C1` (stereo not drawn) [Compound 88] as the molecule, how does the IC50 read?
A: Its IC50 is less than 100 nM.

Q: For `CCc1cc2c(s1)CCO[C@@]21CCN(Cc2cn(CC(F)(F)C3(O)CCOCC3)nn2)[C@@H](C)C1` [Compound 122], which IC50 is on record?
A: The IC50 was 100 to 500 nM.

Q: With `C[C@H]1C[C@@]2(CCN1C[C@H]1C[C@@H](NC(=O)C3CCC3)C1)OCCc1cc(CC(F)F)sc12` [Compound 557] as the molecule, how does the IC50 read?
A: The IC50 was less than 100 nM.

Q: With `CCc1cc2c(s1)CCO[C@@]21CCN(C[C@H]2C[C@@H](NC(=O)CNS(C)(=O)=O)C2)[C@@H](C)C1` [Compound 364] as the molecule, how does the IC50 read?
A: Its IC50 is 100 to 500 nM.

Q: With `CCc1cc2c(s1)CCO[C@@]21CCN(CC2CN(C(=O)c3ccc(=O)[nH]c3)C2)[C@@H](C)C1` [Compound 485] as the molecule, how does the IC50 read?
A: Its IC50 is less than 100 nM.

Q: For `CC1Cc2sc(Cl)cc2C2(CCN(Cc3cnn(C)c3)[C@@H](C)C2)O1` (single isomer, unassigned) [Compound 529, (2′S)-2-chloro-2′,6-dimethyl-1′-[(1-methylpyrazol-4-yl)methyl]spiro[6,7-dihydrothieno[3,2-c]pyran-4,4′-piperidine]], which IC50 is on record?
A: Its IC50 is less than 100 nM.

Q: Which IC50 does the source give for `CCc1cc2c(s1)CCO[C@@]21CCN(CC2CN(C(=O)c3ccnn3C)C2)[C@@H](C)C1` [Compound 427] here?
A: Its IC50 is less than 100 nM.

Q: `Cn1cc(CN2CCC3(CC2)OCC2(CC2)c2sc(Cl)cc23)cn1` [Compound 1179, 2′-chloro-1″-[(1-methyl-1H-pyrazol-4-yl)methyl]-6′H-dispiro[cyclopropane-1,7′-thieno[3,2-c]pyran-4′,4″-piperidine]] was tested. Which IC50 did it give?
A: Its IC50 is less than 100 nM.

Q: `CCc1cc2c(s1)CCO[C@@]21CCN(CC2CN(C(=O)c3cc(C(F)(F)F)n[nH]3)C2)[C@@H](C)C1` [Compound 462] was tested. Which IC50 did it give?
A: The IC50 was less than 100 nM.

Q: Which IC50 does the source give for `C[C@H]1C[C@@]2(CCN1Cc1cccc(F)c1O)OC[C@H](O)c1cc(Cl)sc12` [Compound 801] here?
A: Its IC50 is 500 to 1000 nM.

Q: `CCc1cc2c(s1)CCO[C@@]21CCN(C[C@H]2C[C@@H](NC(=O)C3(C)COC3)C2)[C@@H](C)C1` [Compound 359] was tested. Which IC50 did it give?
A: The IC50 was 100 to 500 nM.

Q: Which IC50 does the source give for `CCc1cc2c(s1)CCO[C@@]21CCN(Cc2ccc(N[C@@H](CO)[C@@H](C)O)nc2)[C@@H](C)C1` [Compound 214] here?
A: Its IC50 is less than 100 nM.

Q: For `CS(=O)(=O)CCn1cc(CN2CCC3(CC2)OCC(O)c2cc(Cl)sc23)cn1` (stereo not drawn) [Compound 1181, 2-chloro-1′-[[1-(2-methylsulfonylethyl)pyrazol-4-yl]methyl]spiro[4,5-dihydrothieno[2,3-c]pyran-7,4′-piperidine]-4-ol], which IC50 is on record?
A: The IC50 was 500 to 1000 nM.

Q: `COc1cc(CN2CC[C@]3(C[C@@H]2C)OC[C@H](O)c2cc(Cl)sc23)ccc1OCC(N)=O` [Compound 776] was tested. Which IC50 did it give?
A: The IC50 was less than 100 nM.

Q: With `C[C@H]1C[C@@]2(CCN1Cc1cnn(C)c1)OCC(O)(c1ccccc1)c1cc(Cl)sc12` (stereo partly drawn) [Compound 850, (2′S,7R)-2-chloro-2′-methyl-1′-[(1-methylpyrazol-4-yl)methyl]-4-phenyl-spiro[5H-thieno[2,3-c]pyran-7,4′-piperidine]-4-ol] as the molecule, how does the IC50 read?
A: The IC50 was 100 to 500 nM.

Q: `C[C@H]1C[C@@]2(CCN1CC1(C)COC1)OCCc1cc(Cl)sc12` [Compound 676] was tested. Which IC50 did it give?
A: The IC50 was 100 to 500 nM.

Q: `CCc1cc2c(s1)CCO[C@@]21CCN(C[C@H]2C[C@@H](NS(C)(=O)=O)C2)[C@@H](C)C1` [Compound 410] was tested. Which IC50 did it give?
A: Its IC50 is less than 100 nM.

Q: How did the IC50 turn out when `C[C@H]1C[C@@]2(CCN1CCO)OCCc1cc(CC(F)F)sc12` [Compound 599] was run?
A: Its IC50 is 100 to 500 nM.

Q: `COc1ccc(CN2CC[C@]3(C[C@@H]2C)OCCc2cc(Cl)sc23)cc1OCC(N)=O` [Compound 657] was tested. Which IC50 did it give?
A: Its IC50 is less than 100 nM.

Q: `CCc1cc2c(s1)CCOC21CCN(Cc2ccc(N[C@H]3CC[C@H](O)CC3)nc2)CC1` [Compound 1067] was tested. Which IC50 did it give?
A: Its IC50 is less than 100 nM.

Q: Which IC50 does the source give for `CCc1cc2c(s1)CCO[C@@]21CCN(CC2CN(S(=O)(=O)c3ccccc3)C2)[C@@H](C)C1` [Compound 493] here?
A: Its IC50 is 500 to 1000 nM.

Q: `C[C@H]1C[C@@]2(CCN1CC(=O)N(C)C)OCCc1cc(CC(F)F)sc12` [Compound 624] was tested. Which IC50 did it give?
A: Its IC50 is 500 to 1000 nM.

Q: How did the IC50 turn out when `CCc1cc2c(s1)CCO[C@@]21CCN(CC2CN(C(=O)C(C)(C)C)C2)[C@@H](C)C1` [Compound 457] was run?
A: The IC50 was 500 to 1000 nM.

Q: `CCc1cc2c(s1)CCO[C@@]21CCN(CC2CN(C(=O)c3ccccc3)C2)[C@@H](C)C1` [Compound 431] was tested. Which IC50 did it give?
A: The IC50 was less than 100 nM.

Q: Which IC50 does the source give for `CCc1cc2c(s1)CCO[C@@]21CCN(Cc2cn(C(C)(C)C(=O)N3CCOCC3)nn2)[C@@H](C)C1` [Compound 164] here?
A: Its IC50 is 500 to 1000 nM.

Q: How did the IC50 turn out when `CCc1cc2c(s1)CCO[C@@]21CCN(Cc2cn(CCOCCOCCOCCO)nn2)[C@@H](C)C1` [Compound 197] was run?
A: The IC50 was 100 to 500 nM.

Q: With `C[C@H]1C[C@@]2(CCN1Cc1cnn(CC(=O)NC3CC3)c1)OC[C@@H](O)c1cc(C(F)(F)F)sc12` [Compound 928] as the molecule, how does the IC50 read?
A: The IC50 was less than 100 nM.

Q: How did the IC50 turn out when `CCc1cc2c(s1)CCOC21CCN(Cc2ccc(C(=O)N[C@H](C)CO)nc2)CC1` [Compound 1046] was run?
A: The IC50 was less than 100 nM.

Q: With `C[C@H]1C[C@@]2(CCN1CCCO)OCCc1cc(CC(F)F)sc12` [Compound 615] as the molecule, how does the IC50 read?
A: Its IC50 is 100 to 500 nM.
